In US5464861A, “2-thioindoles (selenoindoles) and related disulfides (selenides) which inhibit protein tyrosine kinases and which have antitumor properties” (Warner-Lambert, priority 1993, dated 1995):
Like-named read-outs stand apart in the source and are kept apart here.

Assays:
A431 epidermoid = test: Growth inhibition assay, A431; type: cell-based; settings: Homo sapiens, A-431, read-out: IC50 cell growth inhibition
[1] = tested on: EGF mediated phosphorylation of a variety of endogenous proteins; test: EGF mediated tyrosine phosphorylation, Western blot; type: cell-based, mouse; design: dose or concentration left out as unconfirmed; settings: Swiss 3T3
Procedure: (§1) Swiss 3T3 fibroblasts, that were growth arrested in serum-free media for 24 hours, were exposed to various concentrations of compound for 2 hours. The cells were then exposed to individual growth factors for 5 minutes and proteins that were phosphorylated on tyrosine in response to the mitogens and were detected by Western blotting techniques using phosphotryosine antibodies. Similar techniques were used for tumor cell lines except the time in serum-free media was increased.

[2] = tested on: human tumor cell lines as well as the Swiss 3T3 fibroblasts; test: Growth inhibition of a variety of human tumor cell lines; type: cell-based, human; mouse
Procedure: Swiss 3T3 mouse fibroblasts were maintained in dMEM/F12 media containing 10% fetal calf serum. Two mL of cells at a density of 1×10^4/mL were placed in 24-well plates plus or minus various concentrations of the inhibitor. The cells were grown at 37° C. under 5% CO2 for 72 hours and then counted by Coulter counter. The data were expressed as the concentration of inhibitor necessary to decrease the growth rate by 50%.

MDV-7 breast = test: Growth inhibition assay, MDV-7; type: cell-based; settings: Homo sapiens, read-out: IC50 cell growth inhibition
[3] = tested on: bFGF mediated tyrosine phosphorylation; test: bFGF mediated tyrosine phosphorylation, Western blot; type: cell-based, mouse; settings: Swiss 3T3, 10 to 50 mM
Procedure: as §1

A549 lung = test: Growth inhibition assay, A549; type: cell-based; settings: Homo sapiens, read-out: IC50 cell growth inhibition
[4] = tested on: Swiss 3T3 mouse fibroblasts; test: Growth inhibition assay, Swiss 3T3 fibroblasts; type: cell-based
Procedure: Swiss 3T3 mouse fibroblasts were maintained in dMEM/F12 media containing 10% fetal calf serum. […] The cells were grown at 37° C. under 5% CO2 for 72 hours and then counted by Coulter counter. The data were expressed as the concentration of inhibitor necessary to decrease the growth rate by 50%.

MDA 468 breast = test: Growth inhibition assay, MDA 468; type: cell-based; settings: Homo sapiens, read-out: IC50 cell growth inhibition
Swiss 3T3 fibroblasts = test: Growth factor mediated mitogenesis (tritiated thymidine incorporation); type: cell-based; settings: Mus musculus, Swiss-3T3, 24 h
Procedure: Swiss 3T3 fibroblasts, that were growth arrested in serum-free media for 24 hours, were exposed to various concentrations of compound for 2 hours. The cells were then exposed to individual growth factors for 24 hours and mitogenesis assessed by measuring tritiated thymidine incorporation into DNA.
The concentration of 21 and 70 required to inhibit growth factor mediated mitogenesis by 50% for the following growth factors was as follows: […]

MDA-231 breast = test: Growth inhibition assay, MDA-231; type: cell-based; settings: Homo sapiens, MDA-MB-231, read-out: IC50 cell growth inhibition
[5] = tested on: PDGF mediated autophosphorylation of the PDGF receptor and tyrosine phosphorylation of other endogenous proteins; test: PDGF mediated tyrosine phosphorylation, Western blot; type: cell-based, mouse; design: dose or concentration left out as unconfirmed; settings: Swiss 3T3
Procedure: as §1

HT-29 colon = test: Growth inhibition assay, HT-29; type: cell-based; settings: Homo sapiens, read-out: IC50 cell growth inhibition
[6] = target: T1, epidermal growth factor receptor tyrosine kinase (Homo sapiens, UniProt P00533); test: EGF receptor tyrosine kinase assay (P^32 incorporation in GAT); type: biochemical; settings: Table 2, EGRF-R; IC50 entries; read-out: IC50 (EGFR TK)
T1 construct: A native 170,000 epidermal growth factor receptor-kinase complex from shed plasma membrane vesicles; endogenous in cells
T1 sequence (P00533 25-1210): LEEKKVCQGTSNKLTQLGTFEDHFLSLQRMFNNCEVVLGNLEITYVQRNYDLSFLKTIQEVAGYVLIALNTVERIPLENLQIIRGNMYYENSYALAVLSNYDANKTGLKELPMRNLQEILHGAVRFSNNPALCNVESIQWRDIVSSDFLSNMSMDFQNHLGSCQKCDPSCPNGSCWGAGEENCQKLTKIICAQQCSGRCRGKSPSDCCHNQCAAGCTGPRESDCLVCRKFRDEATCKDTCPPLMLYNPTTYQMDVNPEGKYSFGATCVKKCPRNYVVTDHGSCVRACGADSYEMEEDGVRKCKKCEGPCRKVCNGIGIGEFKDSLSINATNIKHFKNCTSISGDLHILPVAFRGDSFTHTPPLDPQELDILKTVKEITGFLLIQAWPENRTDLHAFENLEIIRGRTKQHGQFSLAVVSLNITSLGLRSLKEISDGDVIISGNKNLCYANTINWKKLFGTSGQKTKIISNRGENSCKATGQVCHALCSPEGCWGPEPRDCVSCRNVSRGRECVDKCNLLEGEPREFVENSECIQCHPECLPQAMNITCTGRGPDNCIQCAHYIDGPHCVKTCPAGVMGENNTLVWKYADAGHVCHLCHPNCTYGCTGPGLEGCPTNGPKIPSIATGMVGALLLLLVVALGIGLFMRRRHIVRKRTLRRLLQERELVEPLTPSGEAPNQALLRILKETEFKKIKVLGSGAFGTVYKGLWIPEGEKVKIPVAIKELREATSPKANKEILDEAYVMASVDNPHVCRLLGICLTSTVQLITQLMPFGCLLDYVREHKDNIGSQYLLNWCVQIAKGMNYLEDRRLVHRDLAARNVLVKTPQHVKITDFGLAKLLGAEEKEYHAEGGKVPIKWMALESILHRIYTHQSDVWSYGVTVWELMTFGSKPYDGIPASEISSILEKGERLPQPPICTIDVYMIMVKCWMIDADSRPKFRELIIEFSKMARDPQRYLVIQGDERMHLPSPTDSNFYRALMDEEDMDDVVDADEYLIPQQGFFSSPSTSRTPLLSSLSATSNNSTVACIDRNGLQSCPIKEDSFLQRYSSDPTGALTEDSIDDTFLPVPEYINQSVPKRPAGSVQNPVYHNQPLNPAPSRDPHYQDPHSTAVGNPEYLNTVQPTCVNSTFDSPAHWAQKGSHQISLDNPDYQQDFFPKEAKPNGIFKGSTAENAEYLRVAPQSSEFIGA
T1 sequence (P01133 971-1023 partner limits assumed): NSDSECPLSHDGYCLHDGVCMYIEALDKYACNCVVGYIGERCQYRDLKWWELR
Method in brief: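 Receptor pre-activated with 150 ng EGF for 10 min at room temperature. ATP with or without compound then added and incubated 10 min at room temperature.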

[7] = tested on: human epidermoid carcinoma A431 cells; settings: J. Antibiot. 1986;39:170; cited from earlier work
[8] = tested on: human mammary carcinoma MCF-7 and some esophageal tumors; settings: nude mice, dose-dependent; cited from earlier work

Row | SMILES | IC50 (A431 epidermoid) | suppression of EGF mediated phosphorylation of a variety of endogenous proteins [1] | growth inhibition in words [2] | IC50 (MDV-7 breast) | suppression of bFGF mediated tyrosine phosphorylation [3] | IC50 (A549 lung) | IC50 ([4]; Swiss 3T3, 72 hours, Table 2, read-out: IC50 growth inhibition) | IC50 ([4]; Swiss 3T3 fibroblasts, cell line table, read-out: IC50 cell growth inhibition) | IC50 (MDA 468 breast) | IC50 (Swiss 3T3 fibroblasts; EGF) | IC50 (Swiss 3T3 fibroblasts; PDGF) | IC50 (Swiss 3T3 fibroblasts; bFGF) | IC50 (Swiss 3T3 fibroblasts; serum) | IC50 (MDA-231 breast) | suppression of PDGF mediated autophosphorylation of the PDGF receptor and tyrosine phosphorylation of other endogenous proteins [5] | IC50 (HT-29 colon) | IC50 [6] | IC50 growth of A431 cells [7] | tumor growth inhibition [8]
1 | CN1C(=S)C(C(=O)Nc2ccccc2)c2ccccc21 (stereo not shown) [Compound 21, N-phenyl (1-methyl-2-thioxo-3-indolinyl)carboxamide] | 62 µM | suppressed | growth inhibitory | 39 µM | suppressed | 30 µM | 64 µM | 64 µM | 43 µM | 2 µM | 8 µM | 13 µM | 19 µM | 15 µM | suppressed | 55 µM | 1 µM | – | –
2 | O=CN/C=C/c1cc(O)ccc1O [erbstatin] | – | – | – | – | – | – | – | – | – | – | – | – | – | – | – | – | – | 3.6 µg/mL | inhibits the growth
